Where two headings read alike, the source gives them in different places.
System: P. falciparum (NF54 or 3D7 strain)
Assay: Assay for P. falciparum proliferation in infected human blood cells (SYBR Green)
Format: cell-based, Plasmodium falciparum
Settings: NF54 or 3D7 infected human erythrocytes, 72 hours, read-out: EC50 (nM), inhibitory efficacy in delaying P. falciparum proliferation in infected human blood cells
Method in brief: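 NF54 or 3D7 parasites in O+ human erythrocytes at 2.5% hematocrit and 0.3% parasitemia final, exposed to compounds 72 h at 37 °C under 93% N2/4% CO2/3% O2.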

[1] = Plasmodium falciparum, Erythrocyte, 72 h

CN(C(=O)c1cn2c(-c3ccc4c(cnn4C)c3)cnc2cn1)c1ccc(S(C)(=O)=O)cc1 [Compound 205, N-(4-methanesulfonylphenyl)-N-methyl-3-(1-methyl-1H-indazol-5-yl)imidazo[1,2-a]pyrazine-6-carboxamide]
EC50 [1]: 7450 nM

CN(Cc1cn2c(-c3ccc(-c4ccn[nH]4)cc3)cnc2cn1)c1ccc(C#N)cc1 [Compound 2, 4-(((3-(4-(1H-pyrazol-5-yl)phenyl)imidazo[1,2-a]pyrazin-6-yl)methyl)(methyl)amino)benzonitrile]
EC50 [1]: 66 nM

CN(C)c1ncc(-c2cnc3cnc(C(=O)N(C)c4ccc(C#N)cc4)cn23)cn1 [Compound 344, N-(4-cyanophenyl)-3-[2-(dimethylamino)pyrimidin-5-yl]-N-methylimidazo[1,2-a]pyrazine-6-carboxamide]
EC50 [1]: 2990 nM

CN(C(=O)c1cn2c(-c3ccc(C(F)(F)F)cc3)cnc2cn1)c1nc(-c2ccccc2)cs1 [Compound 423, N-methyl-N-(4-phenyl-1,3-thiazol-2-yl)-3-[4-(trifluoromethyl)phenyl]imidazo[1,2-a]pyrazine-6-carboxamide]
EC50 [1]: > 9660 nM

CN(C(=O)c1cn2c(-c3cnc4[nH]ccc4c3)cnc2cn1)c1ccc(C#N)cc1 [Compound 243, N-(4-cyanophenyl)-N-methyl-3-{1H-pyrrolo[2,3-b]pyridin-5-yl}imidazo[1,2-a]pyrazine-6-carboxamide]
EC50 [1]: 98 nM

CN(C(=O)c1cn2c(-c3ccc(Cl)c(C(F)(F)F)c3)cnc2cn1)c1ccc(C#N)cc1 [Compound 60, 3-[4-chloro-3-(trifluoromethyl)phenyl]-N-(4-cyanophenyl)-N-methylimidazo[1,2-a]pyrazine-6-carboxamide]
EC50 [1]: 2630 nM

CN(C(=O)c1cn2c(-c3cccc(-c4cn[nH]c4)c3)cnc2cn1)c1ccc(C#N)cc1 [Compound 46, N-(4-cyanophenyl)-N-methyl-3-[3-(1H-pyrazol-4-yl)phenyl]imidazo[1,2-a]pyrazine-6-carboxamide]
EC50 [1]: > 10000 nM

CN(C(=O)c1cn2c(-c3ccc(S(C)(=O)=O)cc3)cnc2cn1)c1ccc(C#N)cc1 [Compound 129, N-(4-cyanophenyl)-3-(4-methanesulfonylphenyl)-N-methylimidazo[1,2-a]pyrazine-6-carboxamide]
EC50 [1]: 800 nM

N#Cc1ccc2c(c1)OCCN2C(=O)c1cn2c(-c3ccc(C(F)(F)F)cc3)cnc2cn1 [Compound 315, 4-({3-[4-(trifluoromethyl)phenyl]imidazo[1,2-a]pyrazin-6-yl}carbonyl)-3,4-dihydro-2H-1,4-benzoxazine-7-carbonitrile]
EC50 [1]: 2420 nM

CN(C(=O)c1cn2c(-c3ccc(C(F)(F)F)cc3)cnc2cn1)c1ccc(-n2cncn2)cc1 [Compound 313, N-methyl-N-[4-(1H-1,2,4-triazol-1-yl)phenyl]-3-[4-(trifluoromethyl)phenyl]imidazo[1,2-a]pyrazine-6-carboxamide]
EC50 [1]: 1320 nM

CN(C(=O)c1cn2c(-c3ccc(C(F)(F)F)cc3)cnc2cn1)c1ccc(F)c(F)c1 [Compound 105, N-(3,4-difluorophenyl)-N-methyl-3-[4-(trifluoromethyl)phenyl]imidazo[1,2-a]pyrazine-6-carboxamide]
EC50 [1]: 41 nM

CN(C(=O)c1cn2c(-c3ccc(C(F)(F)F)cc3)cnc2cn1)c1cnc(Br)cn1 [Compound 97, N-(5-bromopyrazin-2-yl)-N-methyl-3-[4-(trifluoromethyl)phenyl]imidazo[1,2-a]pyrazine-6-carboxamide]
EC50 [1]: 4510 nM

CN(C(=O)c1cn2c(-c3ccc(-n4cccn4)cc3)cnc2cn1)c1ccc(F)c(F)c1 [Compound 144, N-(3,4-difluorophenyl)-N-methyl-3-[4-(1H-pyrazol-1-yl)phenyl]imidazo[1,2-a]pyrazine-6-carboxamide]
EC50 [1]: 366 nM

CNc1ccc(-c2cnc3cnc(C(=O)N(C)c4ccc(C#N)cc4)cn23)cn1 [Compound 246, N-(4-cyanophenyl)-N-methyl-3-[6-(methylamino)pyridin-3-yl]imidazo[1,2-a]pyrazine-6-carboxamide]
EC50 [1]: 310 nM

Cc1ccc(-c2cnc3cnc(C(=O)N(C)c4ccc(F)c(F)c4)cn23)cc1 [Compound 135, N-(3,4-difluorophenyl)-N-methyl-3-(4-methylphenyl)imidazo[1,2-a]pyrazine-6-carboxamide]
EC50 [1]: 81 nM

CN(C(=O)c1cn2c(-c3ccc(C(F)(F)F)cc3)cnc2cn1)c1cncc(F)c1 [Compound 66, N-(5-fluoropyridin-3-yl)-N-methyl-3-[4-(trifluoromethyl)phenyl]imidazo[1,2-a]pyrazine-6-carboxamide]
EC50 [1]: 5000 nM

COC(=O)Nc1ccc(-c2cnc3cnc(CN(C)c4ccc(C#N)cc4)cn23)cc1 [Compound 225, methyl N-[4-(6-{[(4-cyanophenyl)(methyl)amino]methyl}imidazo[1,2-a]pyrazin-3-yl)phenyl]carbamat]
EC50 [1]: 37 nM

Cc1nc2cnc(C(=O)Nc3ccc(C#N)cc3)cn2c1-c1ccc(C(F)(F)F)cc1 [Compound 376, N-(4-cyanophenyl)-2-methyl-3-[4-(trifluoromethyl)phenyl]imidazo[1,2-a]pyrazine-6-carboxamide]
EC50 [1]: 9490 nM

CN(C(=O)c1cn2c(-c3ccc(C(F)(F)F)cc3)cnc2cn1)c1cccnc1F [Compound 54, N-(2-fluoropyridin-3-yl)-N-methyl-3-[4-(trifluoromethyl)phenyl]imidazo[1,2-a]pyrazine-6-carboxamide]
EC50 [1]: > 9280 nM

Cc1ccc(-c2cnc3cnc(C(=O)N(C)c4ccc(Cl)nc4)cn23)cc1 [Compound 80, -(6-chloropyridin-3-yl)-N-methyl-3-(4-methylphenyl)imidazo[1,2-a]pyrazine-6-carboxamide]
EC50 [1]: 258 nM

CN(C(=O)c1cn2c(-c3ccc(Cl)cn3)cnc2cn1)c1ccc(C#N)cc1 [Compound 196, 3-(5-chloropyridin-2-yl)-N-(4-cyanophenyl)-N-methylimidazo[1,2-a]pyrazine-6-carboxamide]
EC50 [1]: 9350 nM

CN(Cc1cn2c(-c3ccc4c(cnn4C)c3)cnc2cn1)c1ccc(C#N)cc1 [Compound 62, 4-[methyl({[3-(1-methyl-1H-indazol-5-yl)imidazo[1,2-a]pyrazin-6-yl]methyl})amino]benzonitrile]
EC50 [1]: 82 nM

CN(C(=O)c1cn2c(-c3ccc(C(N)=O)cc3)cnc2cn1)c1ccc(F)c(F)c1 [Compound 22, 3-(4-carbamoylphenyl)-N-(3,4-difluorophenyl)-N-methylimidazo[1,2-a]pyrazine-6-carboxamide]
EC50 [1]: 74 nM

CN(C(=O)c1cn2c(-c3ccc(NC(=O)[C@@H](N)C4CCCCC4)cc3)cnc2cn1)c1ccc(C#N)cc1 [Compound 212, 3-{4-[(2S)-2-amino-2-cyclohexylacetamido]phenyl}-N-(4-cyanophenyl)-N-methylimidazo[1,2-a]pyrazine-6-carboxamide]
EC50 [1]: 137 nM

CN(C(=O)c1cn2c(-c3ccc(-c4ccn[nH]4)cc3)cnc2cn1)c1ccc(F)c(F)c1 [Compound 258, N-(3,4-difluorophenyl)-N-methyl-3-[4-(1H-pyrazol-5-yl)phenyl]imidazo[1,2-a]pyrazine-6-carboxamide]
EC50 [1]: 76 nM

CN(C(=O)c1cn2c(-c3ccc(C(F)(F)F)cc3)cnc2cn1)c1ccc(C2CCC2)cn1 [Compound 382, N-(5-cyclobutylpyridin-2-yl)-N-methyl-3-[4-(trifluoromethyl)phenyl]imidazo[1,2-a]pyrazine-6-carboxamide]
EC50 [1]: 8400 nM

CN(C(=O)c1ccc(C(F)(F)F)cc1)c1cn2c(-c3ccc(C(F)(F)F)cc3)cnc2cn1 [Compound 276, N-methyl-4-(trifluoromethyl)-N-{3-[4-(trifluoromethyl)phenyl]imidazo[1,2-a]pyrazin-6-yl}benzamide]
EC50 [1]: 310 nM

CN(C(=O)c1cn2c(-c3ccc(N4CCOCC4)cc3)cnc2cn1)c1ccc(Cl)nc1 [Compound 340, N-(6-chloropyridin-3-yl)-N-methyl-3-[4-(morpholin-4-yl)phenyl]imidazo[1,2-a]pyrazine-6-carboxamide]
EC50 [1]: 6850 nM

CN(C(=O)c1cn2c(-c3ccc(C(F)(F)F)cc3)cnc2cn1)c1ccc(Cl)nc1Cl [Compound 342, N-(2,6-dichloropyridin-3-yl)-N-methyl-3-[4-(trifluoromethyl)phenyl]imidazo[1,2-a]pyrazine-6-carboxamide]
EC50 [1]: 393 nM

C[C@@H](N)C(=O)Nc1ccc(-c2cnc3cnc(C(=O)N(C)c4ccc(C#N)cc4)cn23)cc1 [Compound 282, 3-{4-[(2R)-2-aminopropanamido]phenyl}-N-(4-cyanophenyl)-N-methylimidazo[1,2-a]pyrazine-6-carboxamide]
EC50: 252 nM

COc1ccnc(N(C)C(=O)c2cn3c(-c4ccc(C(F)(F)F)cc4)cnc3cn2)c1 [Compound 358, -(4-methoxypyridin-2-yl)-N-methyl-3-[4-(trifluoromethyl)phenyl]imidazo[1,2-a]pyrazine-6-carboxamide]
EC50 [1]: 1170 nM

CN(C(=O)c1cn2c(-c3ccc4c(c3)CC(=O)N4)cnc2cn1)c1ccc(Cl)nc1 [Compound 379, N-(6-chloropyridin-3-yl)-N-methyl-3-(2-oxo-2,3-dihydro-1H-indol-5-yl)imidazo[1,2-a]pyrazine-6-carboxamide]
EC50 [1]: 6260 nM

COc1cccnc1N(C)C(=O)c1cn2c(-c3ccc(C(F)(F)F)cc3)cnc2cn1 [Compound 16, N-(3-methoxypyridin-2-yl)-N-methyl-3-[4-(trifluoromethyl)phenyl]imidazo[1,2-a]pyrazine-6-carboxamide]
EC50 [1]: 454 nM

CN(C)c1ccc(-c2cnc3cnc(CN(C)c4ccc(Cl)cc4)cn23)cc1 [Compound 37, 4-(6-{[(4-chlorophenyl)(methyl)amino]methyl}imidazo[1,2-a]pyrazin-3-yl)-N,N-dimethylaniline]
EC50 [1]: 640 nM

CN(C(=O)c1cn2c(-c3ccc(-c4ccco4)cc3)cnc2cn1)c1ccc(C#N)cc1 [Compound 125, N-(4-cyanophenyl)-3-[4-(furan-2-yl)phenyl]-N-methylimidazo[1,2-a]pyrazine-6-carboxamide]
EC50 [1]: 369 nM

Source: patent US20150291598A1 (NOVARTIS AG, priority 2012, published 2015)
